In this test the target is T1, ligand binding domain of human ROR gamma (Homo sapiens, UniProt P51449).
T1 construct: NM_001001523; expressed in transfected cells; host or cells: HEK293T
T1 sequence (P51449 247-497 isoform P51449-2): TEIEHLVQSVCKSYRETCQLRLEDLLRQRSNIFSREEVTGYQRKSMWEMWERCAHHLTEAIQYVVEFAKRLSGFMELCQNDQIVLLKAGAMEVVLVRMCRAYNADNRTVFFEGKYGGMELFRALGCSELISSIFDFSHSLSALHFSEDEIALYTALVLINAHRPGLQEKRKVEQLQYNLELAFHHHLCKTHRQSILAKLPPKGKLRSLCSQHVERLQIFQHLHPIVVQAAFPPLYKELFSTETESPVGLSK
Description: ROR gamma reporter gene assay (GAL4-RORγ LBD luciferase, Dual-Glo). It is filed as cell-based. Particulars: HEK293T cells transfected with pM-ROR gamma, 8 concentrations 3.5 nM to 10.5 μM, 24 h incubation; read-out: result (pIC50, inhibition of RORγ transcriptional activity) (converted). An outline of the steps: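 HEK293T cells were co-transfected with GAL4 DBD fused to human RORγ LBD (aa 247-497), a 5×UAS firefly luciferase reporter and CMV-driven renilla luciferase, in medium with 10% charcoal-stripped FBS.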

With `Cc1cc(Cl)c(C(=O)CN(C(=O)c2cnn(C34CCC(C(=O)O)(CC3)CC4)c2C(F)(F)F)C2CCC(C)(C)CC2)c(Cl)c1` [Example 236, 4-(4-((2-(2,6-dichloro-4-methylphenyl)-2-oxoethyl)-(4,4-dimethylcyclohexyl)carbamoyl)-5-(trifluoromethyl)pyrazol-1-yl)bicyclo[2.2.2]octane-1-carboxylic acid], the IC50 was 10500 pM.
Next, `Cc1cc(Cl)c(C(=O)CN(CC2CC(C)(C)C2)C(=O)c2cnn(C34CCC(C(=O)O)(CC3)CC4)c2C(F)(F)F)c(Cl)c1` [Example 237, 4-(4-((2-(2,6-dichloro-4-methylphenyl)-2-oxoethyl)-((3,3-dimethylcyclobutyl)methyl)carbamoyl)-5-(trifluoromethyl)pyrazol-1-yl)bicyclo[2.2.2]octane-1-carboxylic acid]: less than 3470 pM; `Cc1cc(Cl)c(C(=O)CN(CC2CC(C)(C)C2)C(=O)c2cnn([C@H]3CC[C@](C)(C(=O)O)CC3)c2C(F)(F)F)c(Cl)c1` [Example 238, trans-4-(4-((2-(2,6-dichloro-4-methylphenyl)-2-oxoethyl)-((3,3-dimethylcyclobutyl)methyl)carbamoyl)-5-(trifluoromethyl)pyrazol-1-yl)-1-methylcyclohexane-1-carboxylic acid]: 4370 pM.
In the case of `CC1(C)CCC(CN(CC(=O)c2c(Cl)cc(Cl)cc2Cl)C(=O)c2cnn([C@H]3CC[C@](C)(C(=O)O)CC3)c2C(F)(F)F)CC1` [Example 239, trans-4-(4-((4,4-dimethylcyclohexyl)methyl-(2-oxo-2-(2,4,6-trichlorophenyl)ethyl)carbamoyl)-5-(trifluoromethyl)pyrazol-1-yl)-1-methylcyclohexane-1-carboxylic acid] it was less than 3470 pM.
For `CC1(C)[C@@H]2C[C@H](N(CC(=O)c3c(Cl)cc(F)cc3Cl)C(=O)c3cnn(C45CCC(C(=O)O)(CC4)CC5)c3C(F)(F)F)C[C@@H]21` [Example 240, 4-(4-((2-(2,6-dichloro-4-fluorophenyl)-2-oxoethyl)-((1R,3r,5S)-6,6-dimethyl-3-bicyclo[3.1.0]hexanyl)carbamoyl)-5-(trifluoromethyl)pyrazol-1-yl)bicyclo(2.2.2)octane-1-carboxylic acid], the IC50 is 5500 pM.
Regarding `CC1(C)[C@@H]2C[C@H](N(CC(=O)c3c(Cl)cc(Cl)cc3Cl)C(=O)c3cnn(C45CCC(C(=O)O)(CC4)CC5)c3C(F)(F)F)C[C@@H]21` [Example 241, 4-(4-(((1R,3r,5S)-6,6-dimethyl-3-bicyclo[3.1.0]hexanyl)-(2-oxo-2-(2,4,6-trichlorophenyl)ethyl)carbamoyl)-5-(trifluoromethyl)pyrazol-1-yl)bicyclo(2.2.2)octane-1-carboxylic acid], the IC50 is 5130 pM.
Consider `CC1(C)CCC(N(CC(=O)c2c(Cl)cccc2C(F)(F)F)C(=O)c2cnn(C34CCC(C(=O)O)(CC3)CC4)c2C(F)(F)F)CC1` [Example 242, 4-(4-((2-(2-chloro-6-(trifluoromethyl)phenyl)-2-oxoethyl)-(4,4-dimethylcyclohexyl)carbamoyl)-5-(trifluoromethyl)pyrazol-1-yl)bicyclo[2.2.2]octane-1-carboxylic acid], for which the IC50 is 31600 pM.
Consider `COc1cccc(Cl)c1C(=O)CN(C(=O)c1cnn(C23CCC(C(=O)O)(CC2)CC3)c1C(F)(F)F)C1CCC(C)(C)CC1` [Example 243, 4-(4-((2-(2-chloro-6-methoxyphenyl)-2-oxoethyl)-(4,4-dimethylcyclohexyl)carbamoyl)-5-(trifluoromethyl)pyrazol-1-yl)bicyclo[2.2.2]octane-1-carboxylic acid], for which the IC50 is 55000 pM.
In the case of `CC12CCC(CN(CC(=O)c3c(Cl)cc(F)cc3Cl)C(=O)c3cnn([C@H]4CC[C@](C)(C(=O)O)CC4)c3C(F)(F)F)(CC1)O2` [Example 244, trans-4-(4-((2-(2,6-dichloro-4-fluorophenyl)-2-oxoethyl)-((1-methyl-7-oxabicyclo[2.2.1]heptan-4-yl)methyl)carbamoyl)-5-(trifluoromethyl)pyrazol-1-yl)-1-methylcyclohexane-1-carboxylic acid] it was 6920 pM; in that of `CC(C)(C)CN(CC(=O)c1c(Cl)cc(F)cc1Cl)C(=O)c1cnn(C23CCC(C(=O)O)(CC2)CC3)c1C(F)(F)F` [Example 245, 4-(4-((2-(2,6-dichloro-4-fluorophenyl)-2-oxoethyl)-(2,2-dimethylpropyl)carbamoyl)-5-(trifluoromethyl)pyrazol-1-yl)bicyclo[2.2.2]octane-1-carboxylic acid], 8910 pM.
As for `CC(C)(C)CN(CC(=O)c1c(Cl)cc(Cl)cc1Cl)C(=O)c1cnn(C23CCC(C(=O)O)(CC2)CC3)c1C(F)(F)F` [Example 246, 4-(4-(2,2-dimethylpropyl-(2-oxo-2-(2,4,6-trichlorophenyl)ethyl)carbamoyl)-5-(trifluoromethyl)pyrazol-1-yl)bicyclo[2.2.2]octane-1-carboxylic acid], the IC50 was 11500 pM.
Next, `CC1(C)[C@@H]2C[C@H](N(CC(=O)c3c(Cl)cccc3C(F)(F)F)C(=O)c3cnn(C45CCC(C(=O)O)(CC4)CC5)c3C(F)(F)F)C[C@@H]21` [Example 247, 4-(4-((2-(2-chloro-6-(trifluoromethyl)phenyl)-2-oxoethyl)-((1R,3r,5S)-6,6-dimethyl-3-bicyclo[3.1.0]hexanyl)carbamoyl)-5-(trifluoromethyl)pyrazol-1-yl)bicyclo[2.2.2]octane-1-carboxylic acid]: 32400 pM; `COc1cccc(Cl)c1C(=O)CN(C(=O)c1cnn(C23CCC(C(=O)O)(CC2)CC3)c1C(F)(F)F)[C@H]1C[C@@H]2[C@H](C1)C2(C)C` [Example 248, 4-(4-((2-(2-chloro-6-methoxyphenyl)-2-oxoethyl)-((1R,3r,5S)-6,6-dimethyl-3-bicyclo[3.1.0]hexanyl)carbamoyl)-5-(trifluoromethyl)pyrazol-1-yl)bicyclo[2.2.2]octane-1-carboxylic acid]: 21400 pM.
In the case of `CC1(C)CC(CN(CC(=O)c2c(Cl)cc(F)cc2Cl)C(=O)c2cnn([C@H]3CC[C@](C)(C(=O)O)CC3)c2C(F)(F)F)C1` [Example 249, trans-4-(4-((2-(2,6-dichloro-4-fluorophenyl)-2-oxoethyl)-((3,3-dimethylcyclobutyl)methyl)carbamoyl)-5-(trifluoromethyl)pyrazol-1-yl)-1-methylcyclohexane-1-carboxylic acid] it was less than 3470 pM; in that of `CC1(C)CC(CN(CC(=O)c2c(Cl)cc(Cl)cc2Cl)C(=O)c2cnn([C@H]3CC[C@](C)(C(=O)O)CC3)c2C(F)(F)F)C1` [Example 250, trans-4-(4-((3,3-dimethylcyclobutyl)methyl-(2-oxo-2-(2,4,6-trichlorophenyl)ethyl)carbamoyl)-5-(trifluoromethyl)pyrazol-1-yl)-1-methylcyclohexane-1-carboxylic acid], less than 3470 pM; in that of `CC1(C)CC(CN(CC(=O)c2c(Cl)cccc2C(F)(F)F)C(=O)c2cnn([C@H]3CC[C@](C)(C(=O)O)CC3)c2C(F)(F)F)C1` [Example 251, trans-4-(4-((2-(2-chloro-6-(trifluoromethyl)phenyl)-2-oxoethyl)-((3,3-dimethylcyclobutyl)methyl)carbamoyl)-5-(trifluoromethyl)pyrazol-1-yl)-1-methylcyclohexane-1-carboxylic acid], 6030 pM.
Next, `COc1cccc(Cl)c1C(=O)CN(CC1CC(C)(C)C1)C(=O)c1cnn([C@H]2CC[C@](C)(C(=O)O)CC2)c1C(F)(F)F` [Example 252, trans-4-(4-((2-(2-chloro-6-methoxyphenyl)-2-oxoethyl)-((3,3-dimethylcyclobutyl)methyl)carbamoyl)-5-(trifluoromethyl)pyrazol-1-yl)-1-methylcyclohexane-1-carboxylic acid]: 10000 pM; `COc1cccc(Cl)c1C(=O)CN(CC(C)(C)C)C(=O)c1cnn([C@H]2CC[C@](C)(C(=O)O)CC2)c1C(F)(F)F` [Example 253, trans-4-(4-((2-(2-chloro-6-methoxyphenyl)-2-oxoethyl)-(2,2-dimethylpropyl)carbamoyl)-5-(trifluoromethyl)pyrazol-1-yl)-1-methylcyclohexane-1-carboxylic acid]: 45700 pM.
As for `COc1cccc(Cl)c1C(=O)CN(C(=O)c1cnn([C@H]2CC[C@](C)(C(=O)O)CC2)c1C(F)(F)F)C1CCC(C)(C)CC1` [Example 255, trans-4-(4-((2-(2-chloro-6-methoxyphenyl)-2-oxoethyl)-(4,4-dimethylcyclohexyl)carbamoyl)-5-(trifluoromethyl)pyrazol-1-yl)-1-methylcyclohexane-1-carboxylic acid], the IC50 is 55000 pM.
Next, `CC1(C)CC(CN(CC(=O)c2c(Cl)cc(Cl)cc2Cl)C(=O)c2cnn(C34CCC(C(=O)O)(CC3)CC4)c2C(F)(F)F)C1` [Example 256, 4-(4-((3,3-dimethylcyclobutyl)methyl-(2-oxo-2-(2,4,6-trichlorophenyl)ethyl)carbamoyl)-5-(trifluoromethyl)pyrazol-1-yl)bicyclo[2.2.2]octane-1-carboxylic acid]: 6030 pM.
For the compound `COc1cccc(Cl)c1C(=O)CN(CC1CC(C)(C)C1)C(=O)c1cnn(C23CCC(C(=O)O)(CC2)CC3)c1C(F)(F)F` [Example 257, 4-(4-((2-(2-chloro-6-methoxyphenyl)-2-oxoethyl)-((3,3-dimethylcyclobutyl)methyl)carbamoyl)-5-(trifluoromethyl)pyrazol-1-yl)bicyclo[2.2.2]octane-1-carboxylic acid], the IC50 was 20000 pM.
